Where two headings read alike, the source gives them in different places. Peptide text beside a SMILES is read from it. * marks the point of attachment. X1 = CCCCCCCCCCCCCCCC(=O)OC[C@H](COP(=O)([O-])OCC[N+](C)(C)C)O*
Columns and labels:
[1] = biological target: bee-venom phospholipase A2 (Apis mellifera, UniProt P00630); type: biochemical
[2] = system: membrane fusion; details: ref Epand, 2003; cited from earlier work

Chain of bee-venom phospholipase A2 (P00630 34-167 limits assumed): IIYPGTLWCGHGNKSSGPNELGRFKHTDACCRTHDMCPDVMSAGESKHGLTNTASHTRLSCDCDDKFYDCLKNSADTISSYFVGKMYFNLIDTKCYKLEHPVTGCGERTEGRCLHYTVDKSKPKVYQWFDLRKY

Row | Molecule | time to complete hydrolysis by PLA2 [1] | time to complete hydrolysis by PLA2 ([1]; 40°C) | time to complete hydrolysis by PLA2 ([1]; pH 8.5) | hydrolysis by bee-venom PLA2 (result in words) [1] | antiviral action by inhibition of membrane fusion [2]
1 | CCCCCCCCCCCCCCCC(=O)OC[C@H](COP(=O)([O-])OCC[N+](C)(C)C)OC(=O)CCCCCCCCCCCCCCC [DPPC, dipalmitoyl phosphatidylcholine, reference compound] | 10 min | ≤ 90 min | 10 min | – | –
2 | CCCCCCCCCCCCCCCC(=O)OC[C@H](COP(=O)([O-])OCC[N+](C)(C)C)OC(=O)CNC(=O)OC(C)(C)C [compound 14, 1-palmitoyl-2-(N-BOC-glycyl)-sn-glycero-3-phosphocholine] | 20 min | – | – | readily hydrolyzed | –
3 | carbobenzoxy-D-Phe-Phe-Gly [compound 5] | – | – | – | – | blocking viral infection by inhibiting membrane fusion
4 | CCCCCCCCCCCCCCCC(=O)OC[C@H](COP(=O)([O-])OCC[N+](C)(C)C)OC(=O)CNC(=O)[C@H](Cc1ccccc1)NC(=O)[C@@H](Cc1ccccc1)NC(=O)OCc1ccccc1 [compound 13, 1-Palmitoyl-2-(CBZ-D-phe-phe-gly)-sn-glycero-3-phosphocholine] | – | – | ≤ 90 min | completely hydrolyzed | –
5 | CCCCCCCCCCCCCCCC(=O)OC[C@H](COP(=O)([O-])OCC[N+](C)(C)C)OC(=O)CNC(=O)CNC(=O)[C@@H]1CCCN1C(=O)CN.Cl [compound 10, 1-Palmitoyl-2-(gly-pro-gly-gly)-sn-glycero-3-phosphocholine hydrochloride] (H-GPGG-X1) | – | – | ≤ 90 min | completely hydrolyzed | –

— article PMC4183669 (Chemistry and physics of lipids, 2014)
